In US5563155A, “Individual stereosiomers of 7-[3-(aminoalkyl)-1-pyrrolidinyl]-quinolones and naphthyridones as antibacterial agents” (Warner-Lambert Company, priority 1995, dated 1996):
Converted amounts (≈) assume the structure as drawn. Counter-ions that a name gives are not always drawn. Like-named read-outs stand apart in the source and are kept apart here.

What was measured:
Strep. faecalis MGH-2 = assay: in vitro antibacterial activity, microtitration dilution (MIC), Strep. faecalis MGH-2; format: cell-based; conditions: Enterococcus faecalis, MGH2, read-out: minimum inhibiting concentration (MIC)
Method in brief: (§1)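 Antibacterial potency was assessed in vitro using a microtitration dilution procedure, with results given as MIC in μg/mL.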

Klebs. pneumoniae MGH-2 = assay: in vitro antibacterial activity, microtitration dilution (MIC), Klebs. pneumoniae MGH-2; format: cell-based; conditions: Klebsiella pneumoniae, MGH2, read-out: minimum inhibiting concentration (MIC)
Method in brief: as §1

in vivo = assay: in vivo; design: species or system mice; conditions: mouse, po
Description: The phototoxicity data is obtained using depilated mice. The compound was administered orally each day for four successive days, followed each day by 3 hours of UVA radiation. The mice were examined for any positive signs (redness, erythema) relative to control animals. The no effect dose and the 50% effect dose were determined. By use of the above methods, the following minimum inhibiting concentration values (MICs in μg/mL), PD50 's in mg/kg, no effect phototoxicity dose in mg/kg and the cytotoxicity IC50 in μg/mL were obtained for representative enantiomers of the invention and compounds of the prior art as shown in the table.

[1] = cytotoxicity, hamster V-79 cells, colony reduction; format: cell-based; conditions: 3 hours treatment, colonies counted after 5 days, read-out: Cytotox (cytotoxicity IC50)
Description: The cytotoxicity data is obtained using hamster V-79 cells. The cells were suspended in tissue culture medium and grown overnight. Cells were treated with drug for 3 hours, washed free of drug and then replated, and the colonies counted after 5 days. The concentration of drug that reduced colones by 50% relative to control was recorded.
(§2) By use of the above methods, the following minimum inhibiting concentration values (MICs in μg/mL), PD50 's in mg/kg, no effect phototoxicity dose in mg/kg and the cytotoxicity IC50 in μg/mL were obtained for representative enantiomers of the invention and compounds of the prior art as shown in the table.

Staph. aureus H 228 = assay: in vitro antibacterial activity, microtitration dilution (MIC), Staph. aureus H 228; format: cell-based; conditions: Staphylococcus aureus, H228, read-out: minimum inhibiting concentration (MIC)
Method in brief: as §1

Prot. rettgeri M 1771 = assay: in vitro antibacterial activity, microtitration dilution (MIC), Prot. rettgeri M 1771; format: cell-based; conditions: Providencia rettgeri, M1771, read-out: minimum inhibiting concentration (MIC)
Method in brief: as §1

Ent. cloacae MA2646 = assay: in vitro antibacterial activity, microtitration dilution (MIC), Ent. cloacae MA2646; format: cell-based; conditions: Enterobacter cloacae, read-out: minimum inhibiting concentration (MIC)
Method in brief: as §1

Strep. pheumoniae SV-1 [2] = assay: in vitro antibacterial activity, microtitration dilution (MIC), Strep. pneumoniae SV-1; format: cell-based; conditions: Streptococcus pneumoniae, SV1, read-out: minimum inhibiting concentration (MIC)
Method in brief: as §1

Esch. coli Vogel [3] = assay: in vitro antibacterial activity, microtitration dilution (MIC), Esch. coli Vogel; format: cell-based; conditions: Escherichia coli, read-out: minimum inhibiting concentration (MIC)
Method in brief: as §1

Staph. aureus UC-76 = assay: in vitro antibacterial activity, microtitration dilution (MIC), Staph. aureus UC-76; format: cell-based; conditions: Staphylococcus aureus, UC76, read-out: minimum inhibiting concentration (MIC)
Method in brief: as §1

Esch. coli Vogel [4] = assay: median protective dose in mice given lethal systemic infections, Esch. coli Vogel; format: in vivo; conditions: Escherichia coli, single dose at time of challenge, read-out: median protective dose (PD50)
Description: (§3) The in vivo activity is obtained when the compounds are tested according to the procedure of Miller, et al (Proc. Soc. Exp. Biol. Med. 57, 261, 1944). The median protective dose (PD50) was determined in mice given lethal systemic infections. Single doses of compound were given at time of challenge.
as §2
(§4) The in vivo data as PD50 s are reported below the line of MICs for the same compound.

Pseud. aeruginosa UI-18 = assay: in vitro antibacterial activity, microtitration dilution (MIC), Pseud. aeruginosa UI-18; format: cell-based; conditions: Pseudomonas aeruginosa, UI18, read-out: minimum inhibiting concentration (MIC)
Method in brief: as §1

Strep. pyogenes C-203 [5] = assay: in vitro antibacterial activity, microtitration dilution (MIC), Strep. pyogenes C-203; format: cell-based; conditions: Streptococcus pyogenes, C203, read-out: minimum inhibiting concentration (MIC)
Method in brief: as §1

Strep. pheumoniae SV-1 [6] = assay: median protective dose in mice given lethal systemic infections, Strep. pneumoniae SV-1; format: in vivo; conditions: Streptococcus pneumoniae, single dose at time of challenge, read-out: median protective dose (PD50)
Description: as §3, §2, §4

Strep. pyogenes C-203 [7] = assay: median protective dose in mice given lethal systemic infections, Strep. pyogenes C-203; format: in vivo; conditions: Streptococcus pyogenes, single dose at time of challenge, read-out: median protective dose (PD50)
Description: as §3, §2, §4

Row | Compound | MIC (Strep. faecalis MGH-2) [µg/mL] | MIC (Klebs. pneumoniae MGH-2) [µg/mL] | NOAEL at 96 h (in vivo) [mg/kg] | CC50 at 3 h [1] [µg/mL] | MIC (Staph. aureus H 228) [µg/mL] | MIC (Prot. rettgeri M 1771) [µg/mL] | MIC (Ent. cloacae MA2646) [µg/mL] | MIC (Strep. pheumoniae SV-1 [2]) [µg/mL] | MIC (Esch. coli Vogel [3]) [µg/mL] | MIC (Staph. aureus UC-76) [µg/mL] | ED50 (Esch. coli Vogel [4]; PO) [mg/kg] | ED50 (Esch. coli Vogel [4]; SC) [mg/kg] | MIC (Pseud. aeruginosa UI-18) [µg/mL] | MIC (Strep. pyogenes C-203 [5]) [µg/mL] | ED50 (Strep. pheumoniae SV-1 [6]; SV1, PO) [mg/kg] | ED50 (Strep. pheumoniae SV-1 [6]; SV1, SC) [mg/kg] | ED50 (Strep. pyogenes C-203 [7]; C203, PO) [mg/kg] | ED50 (Strep. pyogenes C-203 [7]; C203, SC) [mg/kg]
1 | C[C@H](N)[C@@H]1CCN(c2nc3c(cc2F)c(=O)c(C(=O)O)cn3C2CC2)C1 (relative stereo) [reference compound] | 0.05 (≈ 0.139 µM) | 0.1 (≈ 0.277 µM) | 55 | 48 (≈ 133 µM) | 0.05 (≈ 0.139 µM) | 0.2 (≈ 0.555 µM) | 0.05 (≈ 0.139 µM) | – | – | – | – | – | – | – | – | – | – | –
2 | C[C@@H](N)[C@H]1CCN(c2cc3c(cc2F)c(=O)c(C(=O)O)cn3C2CC2)C1 [Example 1, 3S,1R-1-cyclopropyl-6-fluoro-7-[3-(1-aminoethyl)-1-pyrrolidinyl]-1,4-dihydro-4-oxo-3-quinolinecarboxylic acid] | 0.2 (≈ 0.556 µM) | 0.4 (≈ 1.11 µM) | – | 160 (≈ 445 µM) | 0.4 (≈ 1.11 µM) | 0.8 (≈ 2.23 µM) | 0.2 (≈ 0.556 µM) | 0.1 (≈ 0.278 µM) | 0.2 (≈ 0.556 µM) | 0.05 (≈ 0.139 µM) | 35 | 2 | 1.5 (≈ 4.17 µM) | 0.1 (≈ 0.278 µM) | > 100 | 3 | – | –
3 | C[C@H](N)[C@H]1CCN(c2cc3c(cc2F)c(=O)c(C(=O)O)cn3C2CC2)C1 [Example 2, 3S,1S-1-cyclopropyl-6-fluoro-7-[3-(1-aminoethyl)-1-pyrrolidinyl]-1,4-dihydro-4-oxo-3-quinolinecarboxylic acid] | 0.4 (≈ 1.11 µM) | 0.4 (≈ 1.11 µM) | – | 160 (≈ 445 µM) | 0.8 (≈ 2.23 µM) | 0.8 (≈ 2.23 µM) | 0.2 (≈ 0.556 µM) | 0.2 (≈ 0.556 µM) | 0.2 (≈ 0.556 µM) | 0.1 (≈ 0.278 µM) | 100 | 4 | 1.5 (≈ 4.17 µM) | 0.1 (≈ 0.278 µM) | > 100 | 12 | – | –
4 | C[C@H](N)[C@@H]1CCN(c2cc3c(cc2F)c(=O)c(C(=O)O)cn3C2CC2)C1 [Example 3, 3R,1S-1-cyclopropyl-6-fluoro-7-[3-(1-aminoethyl)-1-pyrrolidinyl]-1,4-dihydro-4-oxo-3-quinolinecarboxylic acid] | 0.025 (≈ 0.0696 µM) | 0.1 (≈ 0.278 µM) | – | 42 (≈ 117 µM) | 0.05 (≈ 0.139 µM) | 0.2 (≈ 0.556 µM) | 0.05 (≈ 0.139 µM) | 0.003 (≈ 0.00835 µM) | 0.05 (≈ 0.139 µM) | 0.003 (≈ 0.00835 µM) | 47 | 0.9 | 0.4 (≈ 1.11 µM) | 0.003 (≈ 0.00835 µM) | 11 | 0.7 | – | –
5 | C[C@@H](N)[C@@H]1CCN(c2cc3c(cc2F)c(=O)c(C(=O)O)cn3C2CC2)C1 [Example 4, 3R,1R-1-cyclopropyl-6-fluoro-7-[3-(1-aminoethyl)-1-pyrrolidinyl]-1,4-dihydro-4-oxo-3-quinolinecarboxylic acid] | 0.1 (≈ 0.278 µM) | 0.4 (≈ 1.11 µM) | – | 140 (≈ 390 µM) | 0.2 (≈ 0.556 µM) | 0.8 (≈ 2.23 µM) | 0.2 (≈ 0.556 µM) | 0.025 (≈ 0.0696 µM) | 0.1 (≈ 0.278 µM) | 0.05 (≈ 0.139 µM) | 72 | 2 | 1.6 (≈ 4.45 µM) | 0.1 (≈ 0.278 µM) | 105 | 2 | – | –
6 | CCN[C@H](C)[C@@H]1CCN(c2c(F)cc3c(=O)c(C(=O)O)cn(C4CC4)c3c2OC)C1 [Example 17] | 0.013 (≈ 0.0311 µM) | 0.4 (≈ 0.958 µM) | > 100 | 130 (≈ 311 µM) | 0.013 (≈ 0.0311 µM) | 0.8 (≈ 1.92 µM) | 0.2 (≈ 0.479 µM) | 0.003 (≈ 0.00719 µM) | 0.2 (≈ 0.479 µM) | 0.003 (≈ 0.00719 µM) | 14 | 4 | 3.1 (≈ 7.43 µM) | 0.003 (≈ 0.00719 µM) | – | – | 2 | 0.6
7 | CCN[C@@H](C)[C@@H]1CCN(c2c(F)cc3c(=O)c(C(=O)O)cn(C4CC4)c3c2OC)C1 [Example 18, 3R,1S-1-cyclopropyl-6-fluoro-7-[3-(1-N-ethylaminoethyl)-1-pyrrolidinyl]-8-methoxy-1,4-dihydro-4-3-quinolinecarboxylic acid] | 0.025 (≈ 0.0599 µM) | 0.2 (≈ 0.479 µM) | > 100 | 110 (≈ 263 µM) | 0.013 (≈ 0.0311 µM) | 0.4 (≈ 0.958 µM) | 0.1 (≈ 0.24 µM) | 0.005 (≈ 0.012 µM) | 0.1 (≈ 0.24 µM) | 0.003 (≈ 0.00719 µM) | 5 | 2 | 3.1 (≈ 7.43 µM) | 0.006 (≈ 0.0144 µM) | – | – | 0.5 | 0.2
8 | CN[C@H](C)[C@@H]1CCN(c2nc3c(cc2F)c(=O)c(C(=O)O)cn3C2CC2)C1 [Example 22, 3R,1R-1-cyclopropyl-6-fluoro-7-[3-(1-N-methylaminoethyl)-1-pyrrolidinyl]-1,4-dihydro-4-oxo-1,8-naphthyridine-3-carboxylic acid] | 0.025 (≈ 0.0668 µM) | 0.2 (≈ 0.534 µM) | – | 88 (≈ 235 µM) | 0.1 (≈ 0.267 µM) | 0.4 (≈ 1.07 µM) | 0.1 (≈ 0.267 µM) | 0.05 (≈ 0.134 µM) | 0.1 (≈ 0.267 µM) | 0.05 (≈ 0.134 µM) | 4.6 | 1.2 | 1.6 (≈ 4.27 µM) | 0.05 (≈ 0.134 µM) | – | – | 8 | 5
9 | CN[C@@H](C)[C@@H]1CCN(c2c(F)cc3c(=O)c(C(=O)O)cn(C4CC4)c3c2OC)C1 [Example 36, 3R,1S-1-cyclopropyl-6-fluoro-7-[3-(1-N-methylaminoethyl)-1-pyrrolidinyl]-8-methoxy-1,4-dihydro-4-oxo-3-quinolinecarboxylic acid] | 0.025 (≈ 0.062 µM) | 0.1 (≈ 0.248 µM) | > 100 | 33 (≈ 81.8 µM) | 0.013 (≈ 0.0322 µM) | 0.2 (≈ 0.496 µM) | 0.05 (≈ 0.124 µM) | 0.013 (≈ 0.0322 µM) | 0.05 (≈ 0.124 µM) | 0.013 (≈ 0.0322 µM) | 4 | 1 | 0.8 (≈ 1.98 µM) | 0.003 (≈ 0.00744 µM) | – | – | 1 | 0.1
10 | CCN[C@@H](C)[C@@H]1CCN(c2nc3c(cc2F)c(=O)c(C(=O)O)cn3-c2ccc(F)cc2F)C1 [Example 50, 3R,1S-7-[3-(1-N-ethylaminoethyl)-1-pyrrolidinyl]-1-(2,4-difluorophenyl)-6-fluoro-1,4-dihydro-4-oxo-1,8-naphthyridine-3-carboxylic acid] | 0.2 (≈ 0.434 µM) | 0.8 (≈ 1.74 µM) | – | – | 0.05 (≈ 0.109 µM) | 1.6 (≈ 3.47 µM) | 0.8 (≈ 1.74 µM) | 0.1 (≈ 0.217 µM) | 0.4 (≈ 0.869 µM) | 0.013 (≈ 0.0282 µM) | – | – | 3.1 (≈ 6.73 µM) | 0.1 (≈ 0.217 µM) | 2 | 2 | – | –
11 | CN[C@@H](C)[C@@H]1CCN(c2nc3c(cc2F)c(=O)c(C(=O)O)cn3-c2ccc(F)cc2F)C1 [Example 64, 3R,1S-1-(2,4-difluorophenyl)-6-fluoro-1,4-dihydro-7-[3-[1-(methylamino)ethyl]-1-pyrrolidinyl]-4-oxo-1,8-naphthyridine-3-carboxylic acid, monohydrochloride] | 0.2 | 0.8 | – | 310 | 0.1 | 1.6 | 0.8 | 0.025 | 0.4 | 0.025 | 5 | 2 | 3.1 | 0.05 | – | – | 4 | 2
12 | C[C@@H]([C@@H]1CCN(c2cc3c(cc2F)c(=O)c(C(=O)O)cn3C2CC2)C1)N(C)C [Example 73] | 0.1 (≈ 0.258 µM) | 0.2 (≈ 0.516 µM) | < 30 | – | 0.1 (≈ 0.258 µM) | 0.8 (≈ 2.06 µM) | 0.2 (≈ 0.516 µM) | 0.05 (≈ 0.129 µM) | 0.1 (≈ 0.258 µM) | 0.05 (≈ 0.129 µM) | 5 | 4 | 1.6 (≈ 4.13 µM) | 0.05 (≈ 0.129 µM) | – | – | 4 | 4
